Data reported in patent US10934302B1, “SHP2 phosphatase inhibitors and methods of use thereof” (Relay Therapeutics, Inc., priority 2018, dated 2021).

target: SHP2 (Homo sapiens (Human), UniProt Q06124); assay: SHP2 allosteric inhibition assay (DiFMUP prompt fluorescence); type: biochemical; settings: 0.25 nM SHP2 activated with 0.5 μM peptide IRS1_pY1172(dPEG8)pY1222; substrate DiFMUP

Row | IC50 | Compound
1 | ≤ 0.05 µM | NC1c2ncccc2CC12CCN(c1cnc3c(N4CCCc5ncccc54)n[nH]c3n1)CC2 (centres unmarked) [Example 45]
2 | ≤ 0.05 µM | Cn1cc(-c2ccc3c(n2)CCCN3c2n[nH]c3nc(N4CCC5(CC4)Cc4cccnc4C5N)cnc23)cn1 (centres unmarked) [Example 46]
3 | ≤ 0.05 µM | Cn1cc(-c2ccc3c(n2)CCCN3c2n[nH]c3nc(N4CCC5(CC4)Cc4cccc(F)c4[C@H]5N)cnc23)cn1 [Example 48]
4 | ≤ 0.05 µM | N[C@@H]1c2cnccc2CC12CCN(c1cnc3c(N4CCCc5ncccc54)n[nH]c3n1)CC2 [Example 50]
5 | ≤ 0.05 µM | Cn1ccc2c(c1=O)CCCN2c1n[nH]c2nc(N3CCC4(CC3)Cc3cc(F)ccc3[C@H]4N)cnc12 [Example 52]
6 | ≤ 0.05 µM | Cn1ccc2c(c1=O)CCCN2c1n[nH]c2nc(N3CCC4(CC3)Cc3c(F)cccc3[C@H]4N)cnc12 [Example 53]
7 | ≤ 0.05 µM | N[C@@H]1c2cccc(F)c2OC12CCN(c1cnc3c(N4CCCc5ncccc54)n[nH]c3n1)CC2 [Example 54]
8 | ≤ 0.05 µM | Cn1ccc2c(c1=O)CCCN2c1n[nH]c2nc(N3CCC4(CC3)Oc3c(F)cccc3[C@H]4N)cnc12 [Example 55]
9 | ≤ 0.05 µM | CS(=O)(=O)c1cccc2c1CCCN2c1n[nH]c2nc(N3CCC4(CC3)Cc3c(F)cccc3[C@H]4N)cnc12 [Example 56]
10 | ≤ 0.05 µM | Cn1ccc2c(c1=O)CCCN2c1n[nH]c2nc(N3CCC4(CC3)Oc3ccccc3[C@H]4N)cnc12 [Example 57]
11 | ≤ 0.05 µM | Cn1ccc2c(c1=O)CCCN2c1n[nH]c2nc(N3CCC4(CC3)Cc3ccc(F)cc3[C@H]4N)cnc12 [Example 58]
12 | ≤ 0.05 µM | CS(=O)(=O)c1cccc2c1CCCN2c1n[nH]c2nc(N3CCC4(CC3)Cc3cccc(F)c3[C@H]4N)cnc12 [Example 59]
13 | ≤ 0.05 µM | Cn1cc(-c2ccc3c(n2)CCCN3c2n[nH]c3nc(N4CCC5(CC4)Oc4ccccc4[C@H]5N)cnc23)cn1 [Example 60]
14 | ≤ 0.05 µM | N[C@@H]1c2ccccc2OC12CCN(c1cnc3c(N4CCCc5nc(-c6ncco6)ccc54)n[nH]c3n1)CC2 [Example 61]
15 | ≤ 0.05 µM | N[C@H]1c2c(F)ccc(F)c2CC12CCN(c1cnc3c(N4CCCc5ncccc54)n[nH]c3n1)CC2 [Example 62]
16 | 0.05 to 1 µM | Nc1nccc(Sc2cnc(N3CCC4(CC3)Cc3ccccc3[C@H]4N)cn2)c1Cl [Example 63]
17 | ≤ 0.05 µM | N[C@@H]1c2ccccc2OC12CCN(c1cnc(Oc3ccnc(Cl)c3Cl)cn1)CC2 [Example 64]
18 | ≤ 0.05 µM | N[C@@H]1c2ccccc2CC12CCN(c1cnc3c(-c4ccnc(Cl)c4F)n[nH]c3n1)CC2 [Example 67, (3S)-1′-[3-(2-chloro-3-fluoropyridin-4-yl)-1H-pyrazolo[3,4-b]pyrazin-6-yl]-1,3-dihydrospiro[indene-2,4′-piperidin]-3-amine]
19 | ≤ 0.05 µM | N[C@@H]1c2ccccc2CC12CCN(c1cnc3c(-c4cccc5ncccc45)n[nH]c3n1)CC2 [Example 68]
20 | ≤ 0.05 µM | N[C@H]1c2ccccc2CC12CCN(c1cnc3c(-c4cccc5ncccc45)n[nH]c3n1)CC2 [Example 69]
21 | 0.05 to 1 µM | N[C@@H]1c2ccccc2CC12CCN(c1cnc3c(-c4ccnc(Cl)c4Cl)n[nH]c3n1)CC2 [Example 70]
22 | ≤ 0.05 µM | N[C@H]1c2ccccc2CC12CCN(c1cnc3c(-c4ccnc(Cl)c4Cl)n[nH]c3n1)CC2 [Example 71]
23 | ≤ 0.05 µM | N[C@@H]1c2ccccc2CC12CCN(c1cnc3c(-c4cc5cc[nH]c5cc4F)n[nH]c3n1)CC2 [Example 72]
24 | ≤ 0.05 µM | N[C@H]1c2ccccc2CC12CCN(c1cnc3c(-c4cc5cc[nH]c5cc4F)n[nH]c3n1)CC2 [Example 73]
25 | ≤ 0.05 µM | N[C@@H]1c2ccccc2CC12CCN(c1cnc3c(-c4ccncc4F)n[nH]c3n1)CC2 [Example 74]
26 | ≤ 0.05 µM | N[C@H]1c2ccccc2CC12CCN(c1cnc3c(-c4ccncc4F)n[nH]c3n1)CC2 [Example 75]
27 | ≤ 0.05 µM | N[C@@H]1c2ccccc2CC12CCN(c1ncnc3c(-c4cccc(Cl)c4Cl)csc13)CC2 [Example 76]

Row | IC50 | Compound
28 | ≤ 0.05 µM | Nc1nccc(-c2n[nH]c3nc(N4CCC5(CC4)Cc4ccccc4[C@@H]5N)cnc23)c1F [Example 77, (R)-1′-(3-(2-amino-3-fluoropyridin-4-yl)-1H-pyrazolo[3,4-b]pyrazin-6-yl)-1,3-dihydrospiro[indene-2,4′-piperidin]-1-amine]
29 | ≤ 0.05 µM | Nc1nccc(-c2n[nH]c3nc(N4CCC5(CC4)Cc4ccccc4[C@H]5N)cnc23)c1F [Example 78, (S)-1′-(3-(2-amino-3-fluoropyridin-4-yl)-1H-pyrazolo[3,4-b]pyrazin-6-yl)-1,3-dihydrospiro[indene-2,4′-piperidin]-1-amine]
30 | ≤ 0.05 µM | Nc1nccc(-c2n[nH]c3nc(N4CCC5(CC4)Cc4ccccc4[C@H]5N)cnc23)c1Cl [Example 79, (3S)-1′-[3-(2-amino-3-chloropyridin-4-yl)-1H-pyrazolo[3,4-b]pyrazin-6-yl]-1,3-dihydrospiro[indene-2,4′-piperidin]-3-amine]
31 | ≤ 0.05 µM | Nc1nccc(Sc2cnc(N3CCC4(CC3)Cc3ccccc3[C@@H]4N)cn2)c1Cl [Example 80, (R)-1′-(5-((2-amino-3-chloropyridin-4-yl)thio)pyrazin-2-yl)-1,3-dihydrospiro[indene-2,4′-piperidin]-1-amine]
32 | ≤ 0.05 µM | Nc1nccc(Sc2cnc(N3CCC4(CC3)Cc3ccccc3[C@H]4N)cn2)c1Cl [Example 81, (S)-1′-(5-((2-amino-3-chloropyridin-4-yl)thio)pyrazin-2-yl)-1,3-dihydrospiro[indene-2,4′-piperidin]-1-amine]
33 | ≤ 0.05 µM | Cc1nc(Sc2ccnc(N)c2Cl)cnc1N1CCC2(CC1)Cc1ccccc1[C@H]2N [Example 84, (S)-1′-(5-((2-amino-3-chloropyridin-4-yl)thio)-3-methylpyrazin-2-yl)-1,3-dihydrospiro[indene-2,4′-piperidin]-1-amine]
34 | ≤ 0.05 µM | Nc1nccc(Sc2n[nH]c3nc(N4CCC5(CC4)Cc4ccccc4[C@H]5N)cnc23)c1Cl [Example 86, (S)-1′-(3-((2-amino-3-chloropyridin-4-yl)thio)-1H-pyrazolo[3,4-b]pyrazin-6-yl)-1,3-dihydrospiro[indene-2,4′-piperidin]-1-amine]
35 | ≤ 0.05 µM | N[C@@H]1c2ccccc2CC12CCN(c1nc3[nH]nc(Sc4ccnc(Cl)c4Cl)c3nc1CO)CC2 [Example 88]
36 | ≤ 0.05 µM | Cc1nccc(Sc2n[nH]c3nc(N4CCC5(CC4)Cc4ccccc4[C@H]5N)c(CO)nc23)c1Cl [Example 89]
37 | 0.05 to 1 µM | Cc1nccc(Sc2n[nH]c3nc(N4CCC5(CC4)Cc4ccccc4[C@H]5N)cnc23)c1Cl [Example 90]
38 | 1 to 10 µM | N[C@@H]1c2ccccc2CC12CCN(c1cnc3c(Sc4ccnc(Cl)c4Cl)n[nH]c3n1)CC2 [Example 91]
39 | ≤ 0.05 µM | N[C@H]1c2ccccc2CC12CCN(c1cnc3c(Sc4ccnc(Cl)c4Cl)n[nH]c3n1)CC2 [Example 92]
40 | ≤ 0.05 µM | Nc1nccc(Sc2cnc(N3CCC4(CC3)Cc3ccccc3[C@H]4N)nc2)c1Cl [Example 93]
41 | ≤ 0.05 µM | N[C@@H]1c2ccccc2OC12CCN(c1cnc(Sc3ccnc(Cl)c3Cl)cn1)CC2 [Example 94]
42 | ≤ 0.05 µM | N[C@@H]1c2ccccc2OC12CCN(c1cnc(Sc3ccnc(Cl)c3F)cn1)CC2 [Example 95]
43 | ≤ 0.05 µM | N[C@@H]1c2ccccc2OC12CCN(c1cnc(Sc3cccnc3Cl)cn1)CC2 [Example 96]
44 | 0.05 to 1 µM | Nc1nccc(Sc2ccc(N3CCC4(CC3)Cc3ccccc3[C@H]4N)cn2)c1Cl [Example 97]
45 | 0.05 to 1 µM | CS(=O)(=O)c1cccc2c1CCCN2c1n[nH]c2nc(N3CCC4(CC3)Cc3ccccc3[C@H]4N)c(CO)nc12 [Example 98, {6-[(3S)-3-amino-1,3-dihydrospiro[indene-2,4′-piperidin]-1′-yl]-3-(5-methanesulfonyl-1,2,3,4-tetrahydroquinolin-1-yl)-1H-pyrazolo[3,4-b]pyrazin-5-yl}methanol]
46 | ≤ 0.05 µM | NC1c2ccccc2CC12CCN(c1nc3[nH]nc(N4CCCc5ncccc54)c3nc1CO)CC2 (centres unmarked) [Example 99]
47 | 0.05 to 1 µM | N[C@@H]1c2ccccc2CC12CCN(c1nc3[nH]nc(N4CCCc5ncccc54)c3nc1CO)CC2 [Example 100]
48 | 0.05 to 1 µM | Cn1cc(-c2ccc3c(n2)CCCN3c2n[nH]c3nc(N4CCC5(CC4)Cc4ccccc4[C@H]5N)c(CO)nc23)cn1 [Example 101]
49 | ≤ 0.05 µM | CC(=O)N1CCN(c2n[nH]c3nc(N4CCC5(CC4)Cc4ccccc4[C@H]5N)c(CO)nc23)c2ccccc21 [Example 102]
50 | ≤ 0.05 µM | N[C@@H]1c2ccccc2CC12CCN(c1nc3[nH]nc(N4CCCCC4)c3nc1CO)CC2 [Example 103]
51 | ≤ 0.05 µM | N[C@@H]1c2ccccc2CC12CCN(c1nc3[nH]ncc3nc1CO)CC2 [Example 104, (S)-(6-(1-amino-1,3-dihydrospiro[indene-2,4′-piperidin]-1′-yl)-1H-pyrazolo[3,4-b]pyrazin-5-yl)methanol]
52 | ≤ 0.05 µM | N#Cc1cccc2c1[C@@H](N)C1(CCN(c3cnc4c(N5CCCc6ncccc65)n[nH]c4n3)CC1)C2 [Example 105, (3S)-3-amino-1′-[3-(1,2,3,4-tetrahydro-1,5-naphthyridin-1-yl)-1H-pyrazolo[3,4-b]pyrazin-6-yl]-1,3-dihydrospiro[indene-2,4′-piperidine]-4-carbonitrile]
53 | ≤ 0.05 µM | COc1ccc2c(n1)[C@@H](N)C1(CCN(c3cnc4c(N5CCCc6ncccc65)n[nH]c4n3)CC1)C2 [Example 106]
54 | ≤ 0.05 µM | COc1ccc2c(n1)CC1(CCN(c3cnc4c(N5CCCc6ncccc65)n[nH]c4n3)CC1)[C@@H]2N [Example 108]

Row | Compound | IC50
55 | N[C@@H]1c2ccccc2CC12CCN(c1cnc3c(N4CCCc5cc(OS(=O)(=O)F)ccc54)n[nH]c3n1)CC2 [Example 65, 1-{6-[(3S)-3-amino-1,3-dihydrospiro[indene-2,4′-piperidin]-1′-yl]-1H-pyrazolo[3,4-b]pyrazin-3-yl}-1,2,3,4-tetrahydroquinolin-6-yl sulfurofluoridate] | ≤ 0.05 µM
56 | N[C@@H]1c2cccc(F)c2OC12CCN(c1cnc(Sc3ccnc(Cl)c3Cl)cn1)CC2 [Example 82, (3R)-1′-{5-[(2,3-dichloropyridin-4-yl)sulfanyl]pyrazin-2-yl}-7-fluoro-3H-spiro[1-benzofuran-2,4′-piperidin]-3-amine] | ≤ 0.05 µM
